Reference: patent US9815787B2, “Sulfonamide derivative or pharmaceutically acceptable acid addition salt thereof” (UNIVERSITY OF TSUKUBA, priority 2013, dated 2017)

Biological target: T1, OX2R (Homo sapiens, UniProt O43614)
T1 construct: expressed in transfected cells; host or cells: CHO (Chinese hamster ovary) cells constitutively expressing the OX2R gene and NFAT-luciferase (CHOOX2R)
T1 sequence (O43614 1-444): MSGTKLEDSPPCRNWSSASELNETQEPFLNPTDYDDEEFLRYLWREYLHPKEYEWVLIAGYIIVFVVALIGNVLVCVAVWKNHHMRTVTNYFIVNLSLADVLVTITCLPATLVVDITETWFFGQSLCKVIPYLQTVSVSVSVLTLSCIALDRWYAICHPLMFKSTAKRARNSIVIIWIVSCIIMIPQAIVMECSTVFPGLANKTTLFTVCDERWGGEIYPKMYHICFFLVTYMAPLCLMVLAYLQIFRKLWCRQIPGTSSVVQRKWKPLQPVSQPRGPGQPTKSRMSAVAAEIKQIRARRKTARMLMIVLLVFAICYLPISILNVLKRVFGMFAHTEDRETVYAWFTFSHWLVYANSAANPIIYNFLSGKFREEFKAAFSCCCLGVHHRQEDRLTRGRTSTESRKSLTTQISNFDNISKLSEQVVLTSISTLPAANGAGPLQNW
Assay: Evaluation of agonist activity against OX2R (CHOOX2R cells, Fura2AM fluorescence, FDSS3000)
Type: cell-based
Conditions: for Response (0.1 μM (%)): test compound 0.1 μM; for Response (0.1 μM (%)) / Response (1.0 μM (%)) / Response (10 μM (%)) / EC50: CHOOX2R cells; for Response (0.1 μM (%)) / Response (1.0 μM (%)) / Response (10 μM (%)): relative to orexin-A as full agonist (100%); for Response (1.0 μM (%)): test compound 1.0 μM; for Response (10 μM (%)): test compound 10 μM; for EC50: OX2R agonist activity; for Emax: conversion with orexin-A as full agonist (maximum agonist activity 100%)
Summary of the method: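 CHO cells stably expressing human OX2R (and NFAT-luciferase), cultured 48 h in 5% FBS DMEM. Agonist response read as change in Fura2AM fluorescence on compound addition in HEPES buffer. Final compound concentrations 0.1, 1.0 or 10 μM; 1% DMSO.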

Row | SMILES | Response (0.1 μM (%)) [%] | Response (1.0 μM (%)) [%] | Response (10 μM (%)) [%] | EC50 [µM] | Emax [%]
1 | COc1ccc(-c2cccc(C(=O)N(C)C)c2)cc1S(=O)(=O)Nc1cccc(NCCNC(=O)c2cccc(C#N)c2)c1 [Example 72, 3′-(N-(3-((2-(3-cyanobenzamido)ethyl)amino)phenyl)sulfamoyl)-4′-methoxy-N,N-dimethyl-[1,1′-biphenyl]-3-carboxamide] | <5 | 16 | 88 |  | 
2 | CNC(=O)c1cccc(-c2ccc(OC)c(S(=O)(=O)Nc3cccc(NCCNC(=O)c4ccccc4OC)c3)c2)c1 [Example 73, 4′-methoxy-3′-(N-(3-((2-(2-methoxybenzamido)ethyl)amino)phenyl)sulfamoyl)-N-methyl-[1,1′-biphenyl]-3-carboxamide] | 45 | 90 | 98 | 0.182 | 98
3 | COc1ccccc1C(=O)NCCNc1cccc(NS(=O)(=O)c2cc(-c3cccc(C(=O)NCCO)c3)ccc2OC)c1 [Example 74, N-(2-hydroxyethyl)-4′-methoxy-3′-(N-(3-((2-(2-methoxybenzamido)ethyl)amino)phenyl)sulfamoyl)-[1,1′-biphenyl]-3-carboxamide] | <5 | 51 | 92 |  | 
4 | COc1ccccc1C(=O)NCCNc1cccc(NS(=O)(=O)c2cc(-c3cccc(C(=O)N4CCCC4)c3)ccc2OC)c1 [Example 75, 2-methoxy-N-(2-((3-(4-methoxy-3′-(pyrrolidine-1-carbonyl)-1-[1,1′-biphenyl]-3-ylsulfonamide)phenyl)amino)ethyl)benzamide] | 49 | 87 | 76 | 0.077 | 87
5 | COc1ccccc1C(=O)NCCNc1cccc(NS(=O)(=O)c2cc(-c3cccc(C(=O)N(C)C(C)(C)C)c3)ccc2OC)c1 [Example 76, N-(tert-butyl)-4′-methoxy-3′-(N-(3-((2-(2-methoxybenzamido)ethyl)amino)phenyl)sulfamoyl)-N-methyl-[1,1′-biphenyl]-3-carboxamide] | 24 | 95 | 98 |  | 
6 | COCCN(C)C(=O)c1cccc(-c2ccc(OC)c(S(=O)(=O)Nc3cccc(NCCNC(=O)c4ccccc4OC)c3)c2)c1 [Example 77, 4′-methoxy-3′-(N-(3-((2-(2-methoxybenzamido)ethyl)amino)phenyl)sulfamoyl)-N-(2-methoxyethyl)-N-methyl-[1,1′-biphenyl]-3-carboxamide] | 42 | 91 | 82 |  | 
7 | COc1ccccc1C(=O)NCCNc1cccc(NS(=O)(=O)c2cc(-c3cccc(C(=O)NCC(F)(F)F)c3)ccc2OC)c1 [Example 78, 4′-methoxy-3′-(N-(3-((2-(2-methoxybenzamido)ethyl)amino)phenyl)sulfamoyl)-N-(2,2,2-trifluoroethyl)-[1,1′-biphenyl]-3-carboxamide] | <5 | 33 | 49 |  | 
8 | COc1ccccc1C(=O)NCCNc1cccc(NS(=O)(=O)c2cc(-c3ccccc3C(=O)N(C)C)ccc2OC)c1 [Example 79, 4′-methoxy-3′-(N-(3-((2-(2-methoxybenzamido)ethyl)amino)phenyl)sulfamoyl)-N,N-dimethyl-[1,1′-biphenyl]-2-carboxamide] | <5 | 18 | 34 |  | 
9 | COc1ccccc1C(=O)NCCNc1cccc(NS(=O)(=O)c2cc(-c3cccc(C(=O)N4CCCCC4)c3)ccc2OC)c1 [Example 80, 2-methoxy-N-(2-((3-(4-methoxy-3′-(piperidine-1-carbonyl)-1-[1,1′-biphenyl]-3-ylsulfonamido)phenyl)amino)ethyl)benzamide] | 37 | 91 | 91 |  | 

The remaining lines, values ahead:

Row | Response (0.1 μM (%)) [%] | Response (1.0 μM (%)) [%] | Response (10 μM (%)) [%] | EC50 [µM] | Emax [%] | SMILES
10 | 75 | 98 | 98 | 0.365 | 85 | COc1ccccc1C(=O)NCCNc1cccc(NS(=O)(=O)c2cc(-c3cccc(C(=O)N4CCC4)c3)ccc2OC)c1 [Example 81, N-(2-((3-(3′-(azetidine-1-carbonyl)-4-methoxy-[1,1′-biphenyl]-3-ylsulfonamido)phenyl)amino)ethyl)-2-methoxybenzamide]
11 | <5 | 51 | 74 |  |  | COc1ccc(-c2cccc(C(=O)N3CCC3)c2)cc1S(=O)(=O)Nc1cccc(NCCNC(=O)c2ccccc2Cl)c1 [Example 82, N-(2-((3-(3′-(azetidine-1-carbonyl)-4-methoxy-[1,1′-biphenyl]-3-ylsulfonamido)phenyl)amino)ethyl)-2-chlorobenzamide]
12 | <5 | 10 | 71 |  |  | COc1cccc(C(=O)NCCNc2cccc(NS(=O)(=O)c3cc(-c4cccc(C(=O)N5CCC5)c4)ccc3OC)c2)n1 [Example 83, N-(2-((3-(3′-(azetidine-1-carbonyl)-4-methoxy-[1,1′-biphenyl]-3-ylsulfonamido)phenyl)amino)ethyl)-6-methoxypicolinamide]
13 | 7 | 58 | 70 |  |  | COc1ccc(-c2cccc(C(=O)N3CCC3)c2)cc1S(=O)(=O)Nc1cccc(NCCNC(=O)c2cccc(F)c2)c1 [Example 84, N-(2-((3-(3′-(azetidine-1-carbonyl)-4-methoxy-[1,1′-biphenyl]-3-ylsulfonamido)phenyl)amino)ethyl)-3-fluorobenzamide]
14 | 19 | 90 | 90 |  |  | COc1ccc(-c2cccc(C(=O)N3CCC3)c2)cc1S(=O)(=O)Nc1cccc(NCCNC(=O)c2c(OC)cccc2OC)c1 [Example 85, N-(2-((3-(3′-(azetidine-1-carbonyl)-4-methoxy-[1,1′-biphenyl]-3-ylsulfonamido)phenyl)amino)ethyl)-2,6-dimethoxybenzamide]
15 | 10 | 89 | 81 |  |  | COc1cccc(C(=O)NCCNc2cccc(NS(=O)(=O)c3cc(-c4cccc(C(=O)N5CCCC5)c4)ccc3OC)c2)c1 [Example 86, 3-methoxy-N-(2-((3-(4-methoxy-3′-(pyrrolidine-1-carbonyl)-[1,1′-biphenyl]-3-ylsulfonamido)phenyl)amino)ethyl)benzamide]
16 | 42 | 90 | 80 |  |  | COc1ccc(-c2cccc(C(=O)N3CCCC3)c2)cc1S(=O)(=O)Nc1cccc(NCCNC(=O)c2ccccc2Cl)c1 [Example 87, 2-chloro-N-(2-((3-(4-methoxy-3′-(pyrrolidine-1-carbonyl)-[1,1′-biphenyl]-3-ylsulfonamido)phenyl)amino)ethyl)benzamide]
17 | 76 | 100 | 86 |  |  | COc1ccc(-c2cccc(C(=O)N3CCCC3)c2)cc1S(=O)(=O)Nc1cccc(NCCNC(=O)c2c(F)cccc2F)c1 [Example 88, 2,6-difluoro-N-(2-((3-(4-methoxy-3′-(pyrrolidine-1-carbonyl)-[1,1′-biphenyl]-3-ylsulfonamido)phenyl)amino)ethyl)benzamide]
18 | 93 | 96 | 97 |  |  | COc1ccc(-c2cccc(C(=O)N3CCCC3)c2)cc1S(=O)(=O)Nc1cccc(NCCNC(=O)c2sccc2Cl)c1 [Example 89, 3-chloro-N-(2-((3-(4-methoxy-3′-(pyrrolidine-1-carbonyl)-[1,1′-biphenyl]-3-ylsulfonamido)phenyl)amino)ethyl)thiophene-2-carboxamide]
19 | 51 | 68 | 88 |  |  | COc1ccc(-c2cccc(C(=O)N3CCCCC3)c2)cc1S(=O)(=O)Nc1cccc(NCCNC(=O)c2ccccc2F)c1 [Example 90, 2-fluoro-N-(2-((3-(4-methoxy-3′-(piperidine-1-carbonyl)-[1,1′-biphenyl]-3-ylsulfonamido)phenyl)amino)ethyl)benzamide]
20 | 42 | 90 | 80 |  |  | COc1ccc(-c2cccc(C(=O)N3CCCCC3)c2)cc1S(=O)(=O)Nc1cccc(NCCNC(=O)c2cccnc2OC)c1 [Example 91, 2-methoxy-N-(2-((3-(4-methoxy-3′-(piperidine-1-carbonyl)-[1,1′-biphenyl]-3-ylsulfonamido)phenyl)amino)ethyl)nicotinamide]
21 | 27 | 92 | 94 |  |  | COc1ccc(-c2cccc(C(=O)N3CCCCC3)c2)cc1S(=O)(=O)Nc1cccc(NCCNC(=O)c2cccc(F)c2)c1 [Example 92, 3-fluoro-N-(2-((3-(4-methoxy-3′-(piperidine-1-carbonyl)-[1,1′-biphenyl]-3-ylsulfonamido)phenyl)amino)ethyl)benzamide]
